# Experimental data as given in patent US6071944A, “Method of treatment of pigmented cancer cells utilizing photodynamic therapy” (Bowling Green State University, priority 1997, dated 2000).
# “Also recorded” adds a separate entry of the source.
# Experiments:
# B16 pigmented melanoma = assay: Photodynamic therapy and high peak power irradiation studies: tumour regrowth of B16 pigmented melanoma; assay type: in vivo, C57 mice
# Method: Female C57/BL6 and BALB/C mice (18-20 g body weight) obtained from Harlan Spraque Dawley, Inc. (Indianapolis, Ind.) were used as experimental models. B16 pigmented melanoma (the B16 cell line was obtained from American Type Culture Collection) was subcutaneously transplanted into the upper flank by injecting […] of a sterile cell suspension in PBS. The cell line was cultured in Dulbecco's modified minimal essential medium supplemented with 10% fetal calf serum. The cell culture was maintained at 37° C. in a humidified atmosphere of 5% CO2 in air. All of our experiments were performed at 5-7 days after injection of B16 melanoma cells, when the tumor volume was in the range of 0.02-0.04 cm^3 with an external diameter of 0.4-0.6 cm and a depth of 0.15-0.2 cm.
# When the tumor diameter was in the range of 0.4-0.6 cm, groups of 7-8 B16 melanoma bearing mice were irradiated with 1064 nm light from the Nd: YAG laser at 500 or 650 mJ per pulse (HPP). In one group of mice at 24 h after isoBO--SiNc injection (1 mg/kg) the tumor area was exposed to 774 nm light from a dye laser which was operated at a fluence rate of 300 mW/cm^2 for a total light fluence of 520 J/cm^2. This PDT treatment was performed, in other two groups, also before or after the tumors had been exposed to 1064 nm light from the Nd: YAG (650 mJ). Another group of 8 mice was treated with PDT (isoBO--SiNc 1 mg/kg, 300 mW/cm^2, 520 J/cm^2) preceded by HPP (1064 nm, 650 mJ) and retreated in the same way 10 days later, when the tumors were regrowing.
# In a parallel set of experiments, a sequential treatment involving HPP and PDT (with the same irradiation conditions mentioned above) was followed by an immediate further irradiation at 550 mW/cm^2 and 200 j/cm^2 from the same 774 nm light. For each group the effectiveness of the treatment was evaluated by comparing the rate of tumor growth of the irradiated mice with that observed for control mice transplanted simultaneously with the phototreated mice but not exposed to light and not injected with isoBO--SiNc. The tumor size was measured daily by means of a caliper. Individual tumor volumes (V) were calculated by assuming a hemiellipsoidal structure for the tumor nodule and measuring the two perpendicular axes (a and b) and the height (c). Application of the relationship V 2/3(a/2×b/2×c) provided the tumor volume. The time to reach a defined tumor volume was calculated for the individual tumors.
# Special attention was paid to the recoveries obtained at 24 h and 48 h after injection since these time intervals correspond with the maximum isoBO--SiNc accumulation in a variety of transplanted tumors and are generally used for PDT. The data obtained for control mice were in good agreement with those previously found in our laboratory. […] On the basis of the above described findings, a PDT experiment (776 nm; 300 mW/cm^2 -520 J/cm^2) was performed at 24 h post injection, immediately after HPP irradiation with a single 650 mJ pulse of 1064 nm light.
# HPP: High Peak Power irradiation from Nd: YAG laser, 1064 nm, […] per
# PDT: Photodynamic Therapy from dye laser, 774 nm, 300 mW/cm^2, 520
# PTT: Photothermal Therapy from dye laser, 774 nm, 550 mW/cm^2, 200
# *Difference between the growth time for treated and control mice. The
# growth time is the time interval for the tumour to grow to a volume of 1
# cm^3 from the size at the time of irradiation (0.03-0.04 cm^3).
# The growth time of control mice was 11 days.
# [1] = Effect of 1064 nm light on the photosensitizer (recovery, group II); assay type: in vivo, C57 mice; conditions: injected 24 and 48 h before irradiation
# Method: (§1) SiNc incorporated into DPPC liposomes was injected at a dose of 1 mg/kg body weight into the caudal vein of C57 mice bearing the B16 pigmented melanoma. Three groups of mice (three mice per each time point) were used: (a) unirradiated control mice; (b) mice injected immediately after irradiation with the Nd: YAG laser (1064 nm, one pulse, 650 mJ); (c) mice injected at 24 h or 48 h before irradiation under the same conditions indicated for group (b). In all cases, at 3, 24 and 48 h after injection of isoBO--SiNc (groups a and b) and immediately after irradiation (group c), the mice were sacrificed by prolonged exposure to ether vapor. The blood was rapidly taken, centrifuged at 3000 rpm for 10 min. to remove the erythrocytes, and the serum was analyzed for its isoBO--SiNc content by a spectrophotofluorimetric procedure (4) using 690 nm as the excitation wavelength. The liver, tumor and peritumoral skin (namely an area with a 0.5 cm width surrounding the tumor) were excised and their isoBO--SiNc content was determined spectrophotofluorimetrically as previously described (4,5).
# II = mice injected at 24 and 48 h before irradiation (1064 nm, 650 mJ, 1
# Special attention was paid to the recoveries obtained at 24 h and 48 h after injection since these time intervals correspond with the maximum isoBO--SiNc accumulation in a variety of transplanted tumors and are generally used for PDT. […]
# [2] = set-up: species or system C57 mice; conditions: mouse, in vivo, iv, 1 mg/kg, 3 h
# Method: as §1
# The pharmacokinetic behavior of systematically injected isoBO--SiNc in unirradiated and 1064 nm-irradiated (650 mJ, one pulse) C57 mice is shown in Table 1.
# C = control mice (mice not irradiated) […]
# Values ± SD; three mice were independently analyzed each time, with th
# exception of I where six mice were analyzed.
# pigmented melanoma = conditions: very virulent pigmented melanoma; cited from earlier work
# Amelanotic melanoma = conditions: cited from earlier work
Recovery of isoBO-SiNc from selected tissues: peritumoural skin [2],Compound,"delay of tumor regrowth (B16 pigmented melanoma; 1 mg/kg, PDT 300 mW/cm^2, 520 J/cm^2, 776 nm diode laser immediately after 1064 nm irradiation)",Mice tumour free time (B16 pigmented melanoma; HPP + PDT),Mice tumour free time (B16 pigmented melanoma; HPP + PDT + HPP + PDT (retreated 10 days later)),"Regrowth delay (B16 pigmented melanoma; HPP + PDT + HPP + PDT (retreated 10 days later), growth time to 1 cm^3 vs control mice)","Mice tumour free time (B16 pigmented melanoma; HPP + PDT + PTT (774 nm, 550 mW/cm^2, 200 J/cm^2))","Regrowth delay (B16 pigmented melanoma; HPP + PDT + PTT, growth time to 1 cm^3 vs control mice)","Regrowth delay (B16 pigmented melanoma; HPP + PDT, growth time to 1 cm^3 vs control mice)",tumor response to combined HPP and PDT (B16 pigmented melanoma; HPP irradiation followed by PDT),"Mice tumour free time (B16 pigmented melanoma; PDT (774 nm, 300 mW/cm^2, 520 J/cm^2), 1 mg/kg)","animals essentially tumor-free post-PDT (B16 pigmented melanoma; PDT (776 nm; 300 mW/cm^2, 520 J/cm^2) 24 h post injection, immediately after HPP 650 mJ pulse, FIG. 3)","Mice tumour free time (B16 pigmented melanoma; PDT + HPP (1064 nm Nd:YAG, 650 mJ per pulse))","Regrowth delay (B16 pigmented melanoma; PDT + HPP, growth time to 1 cm^3 vs control mice)",delay of tumor regrowth (B16 pigmented melanoma; PDT under identical conditions without the pre-irradiation),"Regrowth delay (B16 pigmented melanoma; PDT, difference in growth time to 1 cm^3 between treated and control mice)",effect of 1064 nm irradiation on recovery / integrity of the photosensitizer [1],response of pigmented melanoma to PDT (pigmented melanoma),response of amelanotic melanoma to Photofrin-PDT (Amelanotic melanoma)
0.44 ± 0.1 μg of drug per g,"CCCCCCCCCCCCCCCCCC[Si]([O-])(CC(C)C)CC(C)C.CCCCCCCCCCCCCCCCCC[Si]([O-])(CC(C)C)CC(C)C.[Si+4].c1ccc2cc3c(cc2c1)-c1nc2nc(nc4[n-]c(nc5[n-]c(nc-3n1)c1cc3ccccc3cc51)c1cc3ccccc3cc41)-c1cc3ccccc3cc1-2 [isoBO-SiNc, Bis(di-isobutyloctadecylsiloxy)-2,3-naphthalocyanato silicon]",11 days,9 days,21 days,27 days,22 days,34.6 days,16.4 days,remarkable retardation in tumor growth rate; also recorded: significant tumor response which is markedly larger than that obtained with either treatment alone,2 days,~11 days,2 days,7 days,4 days,6.3 days,no appreciable effect on the recovery; also recorded: not affected by 1064 nm light,,
,Photofrin,,,,,,,,,,,,,,,,poorly responsive,successfully treated
